Values quoted from earlier work in US20080181937A1, “DOSAGE REGIMEN AND MEDICAMENT FOR GUARDING MEMORY AND BRAIN HEALTH AND FOR PREVENTING OR REDUCING RISK OF ONSET OF DEMENTIA BY ADMINISTRATION OF SPECIFIC VITAMINS AND SUPPLEMENTS (MEMOGUARD)” (priority 2007, published 2008).

Tests used:
[1] = system: patients with marked memory loss at risk for developing Alzheimer's disease
[2] = system: normal healthy subjects and the elderly; conditions: fish 2-3 times a week or supplements
amyloid = conditions: in vivo
[3] = system: animal model of rheumatoid arthritis

COc1cc2c(cc1OC)C(=O)C(CC1CCN(Cc3ccccc3)CC1)C2 (centres unmarked) [Aricept]
prevention of the onset of Alzheimer's disease [1]: Neither of these drugs were shown to significantly prevent the onset

CC/C=C\C/C=C\C/C=C\C/C=C\C/C=C\C/C=C\CCC(=O)O [DHA]
memory and attention ([2]; normal healthy subjects): increases memory and attention
risk of Alzheimer's ([2]; the elderly): significantly lowers the risk of Alzheimer's
amount of amyloid in the brain (amyloid): can reduce the amount of amyloid in the brain

COc1cc(/C=C/C(=O)CC(=O)/C=C/c2ccc(O)c(OC)c2)ccc1O [Curcumin]
inflammation [3]: can reduce inflammation

vitamin E
transfer to a nursing home (elderly patients; patients with cognitive impairment or dementia): can even delay transfer to a nursing home

COc1ccc2c3c1O[C@H]1C[C@@H](O)C=C[C@@]31CCN(C)C2 [Razadyne]
prevention of the onset of Alzheimer's disease [1]: Neither of these drugs were shown to significantly prevent the onset

CC(C)Cc1ccc(C(C)C(=O)O)cc1 (centres unmarked) [ibuprofen]
incidence of Alzheimer's disease (elderly patients; observational studies, individuals taking NSAID's): lower incidence of Alzheimer's disease
